In publication PMC3690544 (European journal of pharmacology, 2012):
Like-named read-outs stand apart in the source and are kept apart here.

Columns and labels:
P-glycoprotein (Pgp) [1] = target: T1, P-glycoprotein (Pgp) (Homo sapiens, UniProt P08183); type: cell-based
P-glycoprotein (Pgp) [2] = target: T1, P-glycoprotein (Pgp); type: cell-based; remark: listed apart in the source

T1 sequence (P08183 whole entry): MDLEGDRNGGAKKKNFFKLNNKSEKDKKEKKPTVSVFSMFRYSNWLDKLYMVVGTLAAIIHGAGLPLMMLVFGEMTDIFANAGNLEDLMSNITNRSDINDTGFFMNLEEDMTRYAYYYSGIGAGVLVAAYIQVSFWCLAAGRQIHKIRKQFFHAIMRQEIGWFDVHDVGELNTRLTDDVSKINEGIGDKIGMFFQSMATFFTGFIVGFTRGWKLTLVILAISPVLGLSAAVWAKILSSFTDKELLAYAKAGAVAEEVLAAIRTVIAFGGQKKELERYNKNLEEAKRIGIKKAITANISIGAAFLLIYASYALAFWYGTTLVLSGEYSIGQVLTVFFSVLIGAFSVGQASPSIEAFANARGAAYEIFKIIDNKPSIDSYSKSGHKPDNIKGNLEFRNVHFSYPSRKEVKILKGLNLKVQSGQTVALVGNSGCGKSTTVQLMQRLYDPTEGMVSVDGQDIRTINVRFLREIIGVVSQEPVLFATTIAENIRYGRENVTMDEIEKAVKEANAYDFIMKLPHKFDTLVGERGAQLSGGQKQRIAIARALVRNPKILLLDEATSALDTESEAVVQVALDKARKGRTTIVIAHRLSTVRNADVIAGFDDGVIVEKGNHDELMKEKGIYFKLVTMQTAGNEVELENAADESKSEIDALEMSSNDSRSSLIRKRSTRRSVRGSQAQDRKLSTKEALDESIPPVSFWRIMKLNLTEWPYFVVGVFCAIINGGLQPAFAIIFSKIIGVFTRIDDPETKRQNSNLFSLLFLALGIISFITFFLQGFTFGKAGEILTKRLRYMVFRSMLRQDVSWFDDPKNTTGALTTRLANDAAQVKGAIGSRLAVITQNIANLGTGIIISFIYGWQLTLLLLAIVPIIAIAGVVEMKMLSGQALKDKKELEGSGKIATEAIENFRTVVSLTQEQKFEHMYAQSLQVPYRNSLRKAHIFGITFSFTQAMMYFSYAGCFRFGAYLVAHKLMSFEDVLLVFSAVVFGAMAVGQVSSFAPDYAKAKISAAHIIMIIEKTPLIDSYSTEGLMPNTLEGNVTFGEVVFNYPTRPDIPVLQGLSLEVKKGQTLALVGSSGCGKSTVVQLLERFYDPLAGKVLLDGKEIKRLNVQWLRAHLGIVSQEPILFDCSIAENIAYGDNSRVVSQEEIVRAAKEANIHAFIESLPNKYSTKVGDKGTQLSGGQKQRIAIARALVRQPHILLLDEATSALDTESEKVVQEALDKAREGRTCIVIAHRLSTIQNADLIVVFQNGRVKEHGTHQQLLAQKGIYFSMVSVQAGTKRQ

Row | Structure (SMILES) | IC50 (P-glycoprotein (Pgp) [1]) [nM] | IC50 (P-glycoprotein (Pgp) [2]) [nM]
1 | COc1cc2c(cc1OC)CN(CCc1ccc(-n3nnc(-c4cc(OC)c(OC)cc4NC(=O)c4cc(=O)c5ccccc5o4)n3)cc1)CC2 [HM30181, N-(2-(2-(4-(2-(6,7-dimethoxy-3,4-dihydroisoquinolin-2(1H)-yl)ethyl)phenyl)-2H-tetrazol-5-yl)-4,5-dimethoxyphenyl)-4-oxo-4H-chromene-2-carboxamide] | 13.1 ± 2.3 | 
2 | COc1cc2c(cc1OC)CN(CCc1ccc(NC(=O)c3cc(OC)c(OC)cc3NC(=O)c3cnc4ccccc4c3)cc1)CC2 [tariquidar] |  | 8.2 ± 2
